This is an account of results in patent US11632948B2, “Recrystallization inhibitor” (THE UNIVERSITY OF WARWICK, priority 2017, dated 2023).

Assay [1] is described as follows: Ice recrystallisation inhibition (IRI) SPLAT assay. The following applies: for IRI activity: 30 min at −8° C., relative to PBS control. The procedure: A series of peptides were tested for IRI activity using a SPLAT assay. Briefly, this involved seeding a large number of small ice crystals, which were annealed for 30 minutes at −8° C., before being photographed. The average crystal size was then measured, relative to a PBS control, with smaller values indicating more IRI activity, FIGS. 3B/1C.
Ice recrystallisation inhibition (IRI) activity was measured using a modified splat assay. A 10 μL sample of polymer dissolved in PBS buffer (pH 7.4) was dropped 1.40 m onto a chilled glass coverslip, resting on a thin aluminium block placed on dry ice. Upon hitting the coverslip, a wafer with diameter of approximately 10 mm and thickness 10 μm was formed instantaneously. The glass coverslip was transferred onto the Linkam cryostage and held at −8° C. under N2 for 30 minutes. Photographs were obtained using an Olympus CX 41 microscope with a UIS-2 20 ×/0.45/∞/0-2/FN22 lens and crossed polarizers (Olympus Ltd, Southend-on-Sea, UK), equipped with a Canon DSLR 500D digital camera. Images were taken of the initial wafer (to ensure that a polycrystalline sample had been obtained) and again after 30 minutes. Image processing was conducting using Image J, which is freely available. In brief, five of the largest ice crystals in the field of view were measured and the single largest length in any axis recorded. The average (mean) of these five measurements was then calculated to find the largest grain dimension along any axis. This was repeated for three individual wafers, and the average (mean) of these three values was calculated to give the mean largest grain size (MLGS). The average value was compared to that of a PBS buffer negative control.

The conditions of assay [2]: from cited references; cited from earlier work.

No end group written: not given here.

Consider `O=C(O)[C@@H]1CCCN1` [proline, L-proline], for which, in assay [1], the IRI activity result is “no IRI activity”.

As for “Nisin A (ITSISLCTPGCKTGALMGCNMKTATCHCSIHVSK; also: lantibiotic, lanthionine rings and dehydro residues not placed; UniProt P13068 24-57, looked up) [a short antimicrobial peptide]”, the “IRI activity (literature)” value in assay [2] is “pH dependent IRI activity”.

For the molecule “PGlu10: poly(glutamic acid) 10-mer (SEQ ID NO: 18), computationally modelled”, the IRI activity entry in assay [1] is “no IRI activity”.

For the molecule poly(glutamic acid) [PGlu110], the IRI activity result in assay [1] is listed as “no IRI”.

poly(hydroxyproline): the “IRI activity (literature)” value in assay [2] is “potent IRI activity”.

In the case of “poly(lysine) (KKKKKKKKKKKKKKKKKKKKKKKKKKKKKKKKKKKKKKKKKKKKKKKKKK; Poly(lysine) with 50 Lys residues) [PLys50]”, in assay [1], the IRI activity result is listed as “no IRI”.

With poly(proline), the IRI activity result in assay [1] is listed as “significant IRI activity”. The “IRI activity compared to another polymer” value in assay [1] (comparison) is listed as “more active than poly(hydroxyproline)”.

Regarding “poly-L-proline mol wt 1,000-10,000 [PPro10-100]”, in assay [1], the IRI activity result was “potent inhibition”.
